Source: ChEMBL document CHEMBL4152332, “Discovery and synthesis of novel magnolol derivatives with potent anticancer activity in non-small cell lung cancer” (Eur J Med Chem, 2018)

Key:
Mus musculus [1] = assay: Toxicity in Balb/c mouse implanted with mouse C26 cells assessed as change in body weight at 100 mg/kg, po qd treated for 10 days and measured every 2 days (RVB = 16.4%); type: organism-based; settings: in vivo
NCI-H1975 [2] = assay: Antiproliferative activity against human NCI-H1975 cells after 72 hrs by MTT assay; type: functional, cell-based; settings: NCI-H1975, 72 h
NCI-H460 [3] = assay: Antiproliferative activity against human H460 cells after 72 hrs by MTT assay; type: functional, cell-based; settings: NCI-H460, 72 h
[4] = Antiproliferative activity against human SPC-A1 cells after 72 hrs by MTT assay; type: functional, cell-based; settings: SPCA1, 72 h
NCI-H358 = assay: Antiproliferative activity against human NCI-H358 cells after 72 hrs by MTT assay; type: functional, cell-based; settings: NCI-H358, 72 h
NCI-H1975 [5] = assay: Cell cycle arrest in human NCI-H1975 cells assessed as increase in accumulation at G0/G1 phase after 24 hrs by propidium iodide staining-based flow cytometric analysis; type: functional
NCI-H1975 [6] = assay: Cell cycle arrest in human NCI-H1975 cells assessed as reduction in accumulation at S phase after 24 hrs by propidium iodide staining-based flow cytometric analysis; type: functional
NCI-H1975 [7] = assay: Cell cycle arrest in human NCI-H1975 cells assessed as reduction in accumulation at G2/M phase after 24 hrs by propidium iodide staining-based flow cytometric analysis; type: functional
NCI-H1975 [8] = assay: Cell cycle arrest in human NCI-H1975 cells assessed as accumulation at S phase at 5 uM after 24 hrs by propidium iodide staining-based flow cytometric analysis (reference value: 22.93%); type: functional
NCI-H1975 [9] = assay: Cell cycle arrest in human NCI-H1975 cells assessed as accumulation at G2/M phase at 5 uM after 24 hrs by propidium iodide staining-based flow cytometric analysis (reference value: 20.11%); type: functional
NCI-H1975 [10] = assay: Cell cycle arrest in human NCI-H1975 cells assessed as accumulation at G2/M phase at 10 uM after 24 hrs by propidium iodide staining-based flow cytometric analysis (reference value: 20.11%); type: functional
NCI-H1975 [11] = assay: Cell cycle arrest in human NCI-H1975 cells assessed as accumulation at G0/G1 phase at 20 uM after 24 hrs by propidium iodide staining-based flow cytometric analysis (reference value: 56.11%); type: functional
NCI-H1975 [12] = assay: Induction of apoptosis in human NCI-H1975 cells assessed as late apoptotic cells at 5 uM after 48 hrs by annexin V/FITC-propidium iodide staining-based flow cytometric method ( Rvb = 10.4%); type: functional
NCI-H1975 [13] = assay: Induction of apoptosis in human NCI-H1975 cells assessed as late apoptotic cells at 20 uM after 48 hrs by annexin V/FITC-propidium iodide staining-based flow cytometric method ( Rvb = 10.4%); type: functional
HUVEC = assay: Antimigratory activity against HUVEC after 24 to 48 hrs by phase contrast/fluorescence microscopic analysis; type: functional, cell-based; settings: Homo sapiens
Mus musculus [14] = assay: Toxicity in Balb/c mouse xenografted with human NCI-H1975 cells assessed as change in body weight at 30 mg/kg, po qd treated for 18 days and measured every 2 days after compound dosing ( Rvb = 2.89%); type: organism-based; settings: in vivo
Mus musculus [15] = assay: Toxicity in Balb/c mouse xenografted with human NCI-H1975 cells assessed as change in body weight at 100 mg/kg, po qd treated for 18 days and measured every 2 days after compound dosing ( Rvb = 2.89%); type: organism-based; settings: in vivo
Mus musculus [16] = assay: Toxicity in Balb/c mouse xenografted with human NCI-H1975 cells assessed as change in body weight at 5 mg/kg, iv treated every 2 days for 9 days and measured every 2 days after compound dosing ( Rvb = 2.89%); type: organism-based; settings: in vivo
Mus musculus [17] = assay: Toxicity in Balb/c mouse xenografted with human NCI-H1975 cells assessed as change in body weight at 20 mg/kg, iv treated every 2 days for 9 days and measured every 2 days after compound dosing ( Rvb = 2.89%); type: organism-based; settings: in vivo
Mus musculus [18] = assay: Toxicity in Balb/c mouse xenografted with human NCI-H1975 cells assessed as mouse death at 10 to 100 mg/kg, po qd treated for 18 days and measured every 2 days after compound dosing; type: organism-based; settings: in vivo
Mus musculus [19] = assay: Toxicity in Balb/c mouse xenografted with human NCI-H1975 cells assessed as mouse death at 5 to 20 mg/kg, iv treated every 2 days for 9 days and measured every 2 days after compound dosing; type: organism-based; settings: in vivo
NCI-H1975 [20] = assay: Antitumor activity against human NCI-H1975 cells xenografted in Balb/c mouse assessed as change in tumor mass at 10 mg/kg, po qd treated for 18 days and measured every 2 days after compound dosing relative to control; type: functional
NCI-H1975 [21] = assay: Antitumor activity against human NCI-H1975 cells xenografted in Balb/c mouse assessed as change in tumor mass at 5 mg/kg, iv treated every 2 days for 9 days and measured every 2 days after compound dosing relative to control; type: functional
NCI-H1975 [22] = assay: Antitumor activity against human NCI-H1975 cells xenografted in Balb/c mouse assessed as change in tumor mass at 20 mg/kg, iv treated every 2 days for 9 days and measured every 2 days after compound dosing relative to control; type: functional
NCI-H1975 [23] = assay: Induction of apoptosis in human NCI-H1975 cells assessed as decrease in cyclin D1 level after 24 hrs by Western blot analysis; type: functional, cell-based
NCI-H1975 [24] = assay: Induction of apoptosis in human NCI-H1975 cells assessed as increase in cleaved PARP level after 48 hrs by Western blot analysis; type: functional, cell-based
NCI-H1975 [25] = assay: Induction of apoptosis in human NCI-H1975 cells assessed as increase in cleaved caspase-3 level after 48 hrs by Western blot analysis; type: functional, cell-based
Mus musculus [26] = assay: Toxicity in Balb/c mouse xenografted with human NCI-H1975 cells assessed as effect on liver morphology at 5 to 20 mg/kg, iv treated every 2 days for 9 days; type: organism-based; settings: in vivo
Mus musculus [27] = assay: Toxicity in Balb/c mouse xenografted with human NCI-H1975 cells assessed as effect on kidney morphology at 5 to 20 mg/kg, iv treated every 2 days for 9 days; type: organism-based; settings: in vivo
Mus musculus [28] = assay: Toxicity in Balb/c mouse xenografted with human NCI-H1975 cells assessed as effect on lung morphology at 5 to 20 mg/kg, iv treated every 2 days for 9 days; type: organism-based; settings: in vivo
Mus musculus [29] = assay: Toxicity in Balb/c mouse xenografted with human NCI-H1975 cells assessed as effect on heart size at 5 to 20 mg/kg, iv treated every 2 days for 9 days; type: organism-based; settings: in vivo
Mus musculus [30] = assay: Toxicity in Balb/c mouse xenografted with human NCI-H1975 cells assessed as effect on heart morphology at 5 to 20 mg/kg, iv treated every 2 days for 9 days; type: organism-based; settings: in vivo
NCI-H1975 [31] = assay: Potency index, ratio of IC50 for honokiol to IC50 for test compound for antiproliferative activity against human NCI-H1975 cells after 72 hrs by MTT assay; type: functional
NCI-H460 [32] = assay: Potency index, ratio of IC50 for honokiol to IC50 for test compound for antiproliferative activity against human H460 cells after 72 hrs by MTT assay; type: functional
HCC827 = assay: Potency index, ratio of IC50 for magnolol to IC50 for test compound for antiproliferative activity against human HCC827 cells after 72 hrs by MTT assay; type: functional
NCI-H1975 [33] = assay: Potency index, ratio of IC50 for magnolol to IC50 for test compound for antiproliferative activity against human NCI-H1975 cells after 72 hrs by MTT assay; type: functional

C=CCc1ccc(O)c(-c2cc(CC=C)cc(CN3CCC(N)CC3)c2O)c1
Activity (Mus musculus [1]): -9.3%
IC50 (NCI-H1975 [2]): 5.61 µM
IC50 (NCI-H460 [3]): 5.98 µM
IC50 [4]: 7.89 µM
IC50 (NCI-H358): 7.43 µM
Activity (NCI-H1975 [5]): Dose-dependent effect
Activity (NCI-H1975 [6]): Dose-dependent effect
Activity (NCI-H1975 [7]): Dose-dependent effect
Activity (NCI-H1975 [8]): 22.39%
Activity (NCI-H1975 [9]): 13.41%
Activity (NCI-H1975 [10]): 12.73%
Activity (NCI-H1975 [11]): 79.45%
Activity (NCI-H1975 [12]): 26.3%
Activity (NCI-H1975 [13]): 49.1%
Activity (HUVEC): Dose-dependent effect
Activity (Mus musculus [14]): 8.85%
Activity (Mus musculus [15]): -5.72%
Activity (Mus musculus [16]): 4.4%
Activity (Mus musculus [17]): 8.23%
Activity (Mus musculus [18]): Non-Toxic
Activity (Mus musculus [19]): Non-Toxic
Activity (NCI-H1975 [20]): 46.3%
Activity (NCI-H1975 [21]): 49.2%
Activity (NCI-H1975 [22]): 65.8%
Activity (NCI-H1975 [23]): Dose-dependent effect
Activity (NCI-H1975 [24]): Dose-dependent effect
Activity (NCI-H1975 [25]): Dose-dependent effect
Activity (Mus musculus [26]): Non-Toxic
Activity (Mus musculus [27]): Non-Toxic
Activity (Mus musculus [28]): Non-Toxic
Activity (Mus musculus [29]): Non-Toxic
Activity (Mus musculus [30]): Non-Toxic
Ratio IC50 (NCI-H1975 [31]): 4
Ratio IC50 (NCI-H460 [32]): 4
Ratio IC50 (HCC827): 8
Ratio IC50 (NCI-H1975 [33]): 8
